Where “and” joins values, the source holds several entries; their conditions need not be identical. Identical values can stand only once. Values belong to the compound of their own block, whether it stands above or below them.
Experiments:
hCAR LBD-SRC1 protein = biological target: T1, hCAR LBD-SRC1 protein (Homo sapiens, UniProt Q14994); assay: Fluorescence thermal shift assay (TSA); format: binding; conditions: for Tm: diindoles at 12.5 µM, APO Tm 51.5 °C, means of triplicates; for stabilization of CAR-LBD-SRC1 fusion (thermal stability): dose-response 0.4-50 µM
T1 construct: The human CAR LBD (Lys^108 – Ser^352) was amplified by PCR from cDNA; HIS6; made in house; host or cells: E. coli BL21(DE3)
T1 sequence (Q14994 108-352): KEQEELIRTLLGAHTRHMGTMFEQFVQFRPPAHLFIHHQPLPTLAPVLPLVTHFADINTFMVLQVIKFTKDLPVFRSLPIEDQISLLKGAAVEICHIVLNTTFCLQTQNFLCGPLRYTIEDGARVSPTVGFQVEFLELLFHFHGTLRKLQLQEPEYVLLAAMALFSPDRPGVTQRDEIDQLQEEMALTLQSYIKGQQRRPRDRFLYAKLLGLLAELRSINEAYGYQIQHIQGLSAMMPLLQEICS
Protocol: Purified hCAR LBD-SRC1 protein was assayed in 137 mM NaCl, 2.7 mM KCl, 10 mM Na2HPO4, and 1.8 mM KH2PO4, 0.5% DMSO, pH 7.4, at a final concentration of 2.2 µM. SYPRO Orange was used at a final concentration of 10× (Invitrogen, S6650). Each sample was divided into three 25 µL replicates. Sample solutions were dispensed into 96-well optical reaction plates (Thermo Fisher Scientific, 4306737) and sealed with optical PCR plate sheets (Thermo Fisher Scientific, AB-1170). TSA experiments were carried out using a QuantStudio 12 K Flex Real Time PCR System (Applied Biosystems). The temperature was ramped up from 25 °C to 95 °C at a rate of 0.3 °C/min, and SYPRO orange fluorescence monitored. Raw fluorescence data and melting temperatures were determined using nonlinear regression curve fitting using GraphPad Prism 9.

[1] = biological target: T2, His-tagged CAR-LBD-SRC1 fusion protein (Homo sapiens, UniProt Q14994); assay: Isothermal titration calorimetry (ITC); format: binding; conditions: 25 °C; ligand 50 μM; mean of two independent experiments
T2 construct: The human CAR LBD (Lys^108 – Ser^352) was amplified by PCR from cDNA; HIS6; made in house; host or cells: E. coli BL21(DE3)
T2 sequence (Q14994 108-352): T1 sequence (Q14994 108-352)
Protocol: Purified hCAR-SRC1 protein (200–250 µM) was dissolved in 120 μL of PBS and supplemented with 0.5% DMSO. All experiments were performed in a MicroCal Auto-iTC200 instrument (Malvern Panalytical, Marlvern, United Kingdom) at 25 °C. Ligands were used at a concentration of 50 μM. Protein was titrated into cells in a series of 19 injections (injection 1 = 0.4 µL, injection 2–19 = 2 µL) 180 s apart. Control experiments performed by injection of the potein into […] yielded insignificant heats of dilution, and heat responses were subtracted. Integrated heat effects were analyzed using Microcal Origin 7 software (Malvern Instruments).

GAL4-hCAR LBD = biological target: T3, GAL4-hCAR LBD (Homo sapiens, UniProt Q14994); assay: HEK293T GAL4-hCAR dual transfection reporter assay with PK11195 (antagonist displacement); format: cell-based; conditions: for HEK293 GAL4-hCAR EC50: basal reporter activity reduced with 1 µM PK11195
T3 construct: chimeric yeast GAL4 DBD fused to an hCAR LBD; expressed in transfected cells; host or cells: HEK293T (ATCC, CRL-3216)
T3 sequence (Q14994 109-352 limits assumed): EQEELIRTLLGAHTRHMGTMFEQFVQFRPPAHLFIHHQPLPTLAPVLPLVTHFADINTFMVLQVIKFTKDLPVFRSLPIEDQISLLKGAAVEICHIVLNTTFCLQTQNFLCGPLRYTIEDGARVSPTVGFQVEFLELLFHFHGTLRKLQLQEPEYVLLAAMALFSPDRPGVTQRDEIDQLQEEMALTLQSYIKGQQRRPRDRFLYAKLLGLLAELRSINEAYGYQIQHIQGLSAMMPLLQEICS
Source text: The GAL4-hCAR, UAS-Luc, pcDNA-GAL4, pGL4-Renilla-Luc and pGEM plasmids were generously provided by Dr. David Mangelsdorf. The GAL4-hCAR plasmid encodes a constitutively expressed chimeric yeast GAL4 DBD fused to an hCAR LBD. The UAS-Luc plasmid encodes a Firefly luciferase reporter under the control of a GAL4 response element. The pcDNA plasmid encodes a constitutively expressed GAL4 DBD and was used as a control vector to determine non-specific luminescence in all HEK293T cellular reporter assays. The pGL4-Renilla-Luc plasmid encodes a constitutively expressed Renilla luciferase reporter and was used as a transfection control in the HEK293T cellular reporter assays.
HEK293T cells (ATCC, CRL-3216) were seeded at a density of 40,000 cells per well in white flat-bottom 96-well microplates (Greiner CellStar, 655073) in Dulbecco’s Modified Eagle Medium (DMEM) (2.5 g/l glucose) supplemented with 10% stripped fetal bovine serum with 100 units/ml of penicillin and incubated for 24 h at 37 °C. Transfection was carried out using 0.3 µL/well of Lipofectamine 2000 (Thermo Fisher Scientific, 11668019). Cells were transfected with 10 ng/well of either pcDNA or GAL4-hCAR, 50 ng/well of UAS-Luc, 5 ng/well of pGL4-Renilla-Luc, and 85 ng/well of pGEM for a total of 150 ng/well of DNA. […] Cells were incubated for 16-hours to allow build-up of luciferase and then processed using the Dual-Glo Luciferase Assay System (Promega, E2940) as per the manufacturer’s instructions. Incubations were performed in four technical replicates.

hCAR = biological target: T4, hCAR (Homo sapiens, UniProt Q14994); assay: Bottom-up HDX-MS of hCAR with ligand; format: binding; conditions: 100 µM ligand
T4 construct: The human CAR LBD (Lys^108 – Ser^352) was amplified by PCR from cDNA; HIS6; made in house; host or cells: E. coli BL21(DE3)
T4 sequence (Q14994 108-352): T1 sequence (Q14994 108-352)
Protocol: Human CAR protein was prepared at 10 µM in 100 mM ammonium acetate pH 7.25 and diluted into either equilibration buffer (10 mM phosphate buffer, pH 7.5) or deuterated reaction buffer (10 mM phosphate buffer, 150 mM NaCl, pH 7.5 in D2O). After labeling times of 1, 10 or 30 min at 25 °C, samples were mixed with equal volumes of quench buffer (100 mM phosphate buffer, pH 2.5) at 0 °C. […] HDX-MS was performed using a commercial Waters HDX system (M-class ACQUITY UPLC and Water Cyclic IMS Mass Spectrometer). Leucine enkephalin was used for mass correction, and all time points were carried out in triplicate. Samples were digested using an Enzymate BEH Pepsin column (2.1 × 30 mm, Waters) at 15 °C. Peptides were desalted on an ACQUITY UPLC BEH C18 VanGuard Pre-column (2.1 × 5 mm, Waters) and separated using an ACQUITY UPLC BEH C18 column (100 × 1 mm, Waters). ProteinLynx Global server (PLGS) and DynamX software was used for peptide identification and deuterium uptake analysis, respectively. PyMOL 2.5 was used for structural visualization.

GST-hCAR-LBD = biological target: T5, GST-hCAR-LBD (Homo sapiens, UniProt Q14994); assay: LanthaScreen TR-FRET PGC1α coactivator recruitment assay; format: biochemical
T5 construct: GST-hCAR-LBD (5 nM), terbium-labeled anti-GST antibody (5 nM); purchased Invitrogen A15141
T5 sequence (Q14994 109-352 limits assumed): T3 sequence (Q14994 109-352 limits assumed)
Protocol: LanthaScreen^TM TR-FRET hCAR coactivator assays were performed according to manufacturer’s instructions (Invitrogen, A15141). Test compounds were incubated for 2 h at room temperature with GST-hCAR-LBD (5 nM), terbium-labeled anti-GST antibody (5 nM), and Fluorescein-PGC1α coactivator peptide (125 nM). Incubations were performed in four technical replicates. TR-FRET emissions were measured using a Tecan Infinite F200 Fluorescence Microplate Reader. Results were expressed as the ratio of fluorescence intensity at 520 nm (fluorescein emission excited by terbium emissions) and 495 nm (terbium emissions).

[2] = tested on: mCAR target genes (cyp2b10, cyp3a11, sult2a1) in mouse liver; assay: qPCR of mCAR target genes in mouse liver after intraperitoneal treatment; format: in vivo
Protocol: (§1) 12–15 week-old C57BL/6 J mice were obtained from Jackson Laboratories and were housed on a standard 12 h light/dark cycle. Nr1i3^−/− mice with C57BL/6 J background were obtained from David Moore’s lab (PMID: 11057673) at Baylor College of Medicine, and used at 13–26 weeks of age. Wild-type male, female and Nr1i3^−/− male mice were used in this study, due to known sex-specific CAR activities. Mice were housed in groups of 2–5 mice per cage on a standard 12 h light/dark cycle and fed with rodent chow diet (Inotiv, Teklad rodent diet 2918). Temperature was maintained at 21 °C with a range of 21–24 °C and humidity at 16–51%. National Institute of Health guidelines for the care and use of laboratory animals were followed with all experiments performed as directed by the Institutional Animal Care and Use Committee at the University of Illinois, Urbana-Champaign (UIUC, IACUC protocol: 22183). Mice were acclimatized to the UIUC mouse facility for 2 weeks prior to experiments. DIM and DIE were dissolved in 5% DMSO in corn oil and injected intraperitoneally at 25 mg/kg once daily for three days. After 4 h of the third injection, mice were sacrificed to collect serum, livers and intestines. TCPOBOP was dissolved in corn oil and injected intraperitoneally at 3 mg/kg once and the livers collected after 3 days for further studies. When used to block CAR activity, 100 mg/kg androstenol was injected intraperitoneally 15 min prior to the first DIM or DIE treatment. RNA from mice livers was isolated using TRIzol (Invitrogen) reagent using the manufacturer’s instructions. 3–5 µg of RNA was used to synthesize cDNA with random primers (NEBioLabs) and Maxima Reverse Transcriptase kits (Thermo Fisher Scientific). cDNA was further diluted, and 50 ng was used for SYBR green (Thermo Fisher Scientific) based qRT-PCR. Relative gene expression was calculated by the delta Ct method and normalized to 36b4 levels as loading controls. qPCR primers for gene expression analysis are listed in Supplementary Table 3.

[3] = Liver-to-body weight ratio after treatment; format: in vivo; conditions: post-treatment, compared to control
Protocol: as §1

Liver histology (H&E) = format: in vivo; conditions: mouse, in vivo
Protocol: as §1, with “3. […]” for “3.”

- Tm (hCAR LBD-SRC1 protein): 57.7 °C
- Kd [1]: 790 nM and 780 nM
- EC50 (GAL4-hCAR LBD; read-out: HEK293 GAL4-hCAR EC50): 2360 nM
SMILES: CCCC(c1c[nH]c2ccccc12)c1c[nH]c2ccccc12 [nDIB]

- Tm (hCAR LBD-SRC1 protein): 58.3 °C
- HEK293 GAL4-hCAR EC50 (GAL4-hCAR LBD): Ambiguous
SMILES: CC(C)C(c1c[nH]c2ccccc12)c1c[nH]c2ccccc12 [iDIB, 3,3’-diindolyl-iso-butane]

- Tm (hCAR LBD-SRC1 protein): 59.1 °C
- Kd [1]: 6000 nM
- HEK293 GAL4-hCAR EC50 (GAL4-hCAR LBD): Ambiguous
SMILES: CCC(c1c[nH]c2ccccc12)c1c[nH]c2ccccc12 [DIP, 3,3’-diindolylpropane]

The remaining lines, values behind:

SMILES: CC(C)(c1ccc(O)cc1)c1ccc(O)cc1 [BPA, bisphenol A, reference compound]
- stabilization of CAR-LBD-SRC1 fusion (thermal stability) (hCAR LBD-SRC1 protein): preferential stabilization

SMILES: Clc1ccc(-c2nc3sccn3c2C=NOCc2ccc(Cl)c(Cl)c2)cc1 [CITCO, 6-(4-chlorophenyl)imidazo[2,1-b][1,3]thiazole-5-carbaldehyde-O-(3,4-dichlorobenzyl)oxime, reference compound]
- stabilization of CAR-LBD-SRC1 fusion (thermal stability) (hCAR LBD-SRC1 protein): no effect on thermal stability
- deuterium uptake change, residues 235–243 (H12/AF2) (hCAR): decreased deuterium uptake
- deuterium uptake difference, amino acids 217–234 (H11) (hCAR): > 20%
- difference in deuterium uptake compared to apo hCAR, amino acids 51–65 (H3) (hCAR): > 20%
- PGC1α cofactor recruitment (GST-hCAR-LBD): able to increase PGC1α recruitment beyond ‘constitutive’ levels

SMILES: Clc1cnc(Oc2ccc(Oc3ncc(Cl)cc3Cl)cc2)c(Cl)c1 [TCPOBOP, 1,4-bis-[2-(3,5,-dichloropyridyloxy)] benzene, reference compound]
- mCAR target gene activation ([2]; WT male mice, 3 mg/kg i.p. once, livers after 3 days): highly activate mCAR target genes
- liver weight / liver-to-body weight ratio [3]: significantly increased

SMILES: C[C@]12CC[C@@H](O)C[C@@H]1CC[C@@H]1[C@@H]2CC[C@]2(C)C=CC[C@@H]12 [And, androstenol, reference compound]
- CAR target gene expression after pre-treatment with inverse agonist ([2]; 100 mg/kg i.p. 15 min prior to first DIM or DIE treatment): greatly reduced target gene expression
- sult2a1 expression in liver ([2]; WT or Nr1i3-/- mice): did not show significant responses
- cyp3a11 expression in liver ([2]; mouse liver, with or without And pre-treatment): increase rather than a decrease
- liver histology (H&E) findings (Liver histology (H&E)): occasional focal inflammation and mild cholangitis
